From US20080139614A1, “Treatment Of Stroke With Histamine H3 Inverse Agonists Or Histamine H3 Antagonists” (priority 2004, published 2008)

Test system: harmaline-induced tremor
Test: harmaline-induced tremor model in rats
Type: in vivo
Excerpt: The identification of a compound as a histamine H3 inverse agonist or a histamine H3 antagonist may be readily determined without undue experimentation by methodology well known in the art. The efficacy of a histamine H3 inverse agonist or a histamine H3 antagonist in treating stroke may be readily determined without undue experimentation by methodology well known in the art, for example the harmaline-induced tremor model in rats, Sinton, et al., Pflugers Archive Eur. J. Phys., 414(1) 31-36 (1989). […] The ability of the histamine H3 inverse agonist or histamine H3 antagonist to be used in the present invention to treat stroke may be determined by these methods.

`N#Cc1ccc(-c2cnc(OC3CCN(C4CCCC4)CC3)nc2)cc1` [2-(1-cyclopentylpiperidine-4-yloxy)-5-(4-cyanophenyl)pyrimidine] was tested, and the “reversal of harmaline-induced tremor” value (dose of 1 mg/kg) was 8.4%, the “reversal of harmaline-induced tremor” value (dose of 3 mg/kg) was 63.3% and the “reversal of harmaline-induced tremor” value (dose of 10 mg/kg) was 84.4%.
